Reference: patent US20230286995A1, “METABOLICALLY STABLE PYRIMIDINYL DIHYDROQUINOXALINONES AS TUBULIN POLYMERIZATION INHIBITORS” (UNIVERSITY OF TENNESSEE RESEARCH FOUNDATION, priority 2022, published 2023)
Where two headings read alike, the source gives them in different places.

How the values were obtained:
[1] = system: Mia PaCa-2; experiment: Cytotoxicity assay (MTS, 72 h); type: cell-based; settings: Homo sapiens, Table 6, read-out: IC50 (nM) Pancreatic cancer Mia PaCa-2
[2] = system: A-253 and Detroit 562; experiment: Western blot of apoptosis markers, head and neck cancer; type: cell-based, human; settings: 100 nM, 72 hours
Excerpt: FIG. 42A illustrates that compound 12k induces apoptosis in the A-253 cell line. FIG. 42B illustrates that compound 12k induces apoptosis in the Detroit 562 cell line.

[3] = system: PC3; experiment: Cytotoxicity assay (MTS, 72 h); type: cell-based; settings: Homo sapiens, PC-3; Table 6; read-out: IC50 (nM) Prostate cancer PC3
Excerpt: (§1) Cytotoxicity Assay. […] Each experiment consisted of four replicates.

[4] = system: MDA-MB-231; experiment: Cytotoxicity assay (MTS, 72 h); type: cell-based; settings: Homo sapiens, MDA-MB-231, read-out: IC50 (nM) Breast Cancer MDA-MB-231; Table 6
[5] = system: M14; experiment: Cytotoxicity assay (MTS, 72 h); settings: Homo sapiens, M14, read-out: IC50 (nM) Melanoma Cancer M14
[6] = system: A375; experiment: Cytotoxicity assay (MTS, 72 h); settings: Homo sapiens, A-375, read-out: IC50 (nM) Melanoma Cancer A375, Table 6;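 note: compounds tested from 0.1 nM up to 3 µM in four replicate wells, with absorbance read at 490 nm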
[7] = system: A-253 and Detroit 562; experiment: Head and neck cancer cell proliferation (confluence %)
[8] = Pharmacokinetic evaluation of 12k in mice; type: in vivo, NSG mice; settings: female, mouse, plasma; for half-life: NSG
Method: Female NSG mice at 7 to 9 weeks of age were used in pharmacokinetic studies. Mice received a single dose of 4 mg/kg 12k intravenously (50% PEG300:50% saline) or 10 mg/kg orally (90% PEG300:10% saline). Blood of animals (n=3) was collected in heparinized tubes via terminal intracardiac blood collection at predefined time points (0.08, 0.25, 0.5, 1, 3, 6, 12, 24 h) and plasma was immediately separated by centrifugation (10,000 rpm for 10 min at 4° C.) and stored at −80° C. until analysis.

[9] = system: PC-3/TxR xenograft tumors; experiment: Subcutaneous PC-3/TxR xenograft model; type: in vivo
[10] = in vitro; settings: human, liver microsomes
[11] = in vitro; settings: mouse, liver microsomes
[12] = system: Detroit 562 cells; experiment: Colony formation, head and neck cancer; type: cell-based, human
Method: (§2) FIG. 41A illustrates the effect of compound 12k on colony formation in the A-253 cell line. FIG. 41B illustrates the effect of compound 12k on colony formation in the Detroit 562 cell line. Colony formation experiments were performed as described elsewhere herein.

[13] = system: A-253 cells; experiment: Colony formation, head and neck cancer; type: cell-based, human
Method: as §2

[14] = system: PC3/TxR; experiment: Cytotoxicity assay (MTS, 72 h); type: cell-based; settings: Homo sapiens, Table 6, paclitaxel-resistant, read-out: IC50 (nM) Prostate cancer PC3/TxR
Method: Biology. Cell culture and Reagents. […] MIA Paca-2 pancreatic cancer cells were cultured in media also supplemented with 2.5% horse serum. PANC-1 and PC-3 were cultured in RPMI 1640 medium (Gibco, Carlsbad, Calif.) supplemented with 10% FBS and 1% antibiotic/antimycotic mixture. […] For biological experiments, pyrimidine dihydroquinoxalinone derivatives were dissolved in DMSO to create 20 mM stock solutions and stored at −20° C. until use.
as §1

[15] = system: MDA-MB-453; experiment: Cytotoxicity assay (MTS, 72 h); type: cell-based, human; settings: Homo sapiens, MDA-MB-453; Table 6; read-out: IC50 (nM) Breast Cancer MDA-MB-453
[16] = system: PANC-1; experiment: Cytotoxicity assay (MTS, 72 h); type: cell-based; settings: Homo sapiens, Table 6, read-out: IC50 (nM) Pancreatic cancer PANC-1
Method: Mia PaCa-2 and PANC-1 cells were seeded in 96-well plates at 4000 and 5000 cells per well, respectively.
as §1

[17] = in vivo; settings: male, NSG, mouse, brain/plasma, iv, 4 mg/kg
[18] = system: A-253 and Detroit 562; experiment: Cytotoxicity in head and neck cancer cell lines; type: cell-based; settings: Homo sapiens; FIG. 39A; read-out: IC50 values, range over A-253 and Detroit 562
Method: A panel of dihydroquinoxalinones were tested in two head and neck cancer cell lines, A-253 and Detroit 562. A-253 cells are a human salivary epidermoid carcinoma cell line, whereas Detroit 562 is a head and neck squamous cell carcinoma (HNSCC). Oral cancer is the most common type of head and neck cancer and more than 90% of oral cancers are either oral or oropharyngeal squamous cell carcinoma (SCC). A major clinical dilemma is chemotherapy efficiency targeted for head and neck squamous cell carcinoma (HNSCC). The inability to successfully complete cancer treatment utilizing a standard surgical approach due to an advanced stage of HNSCC and/or resistance of SCC cells to conventional chemotherapy and/or radiotherapy leads to a continuous search for new compounds with cytostatic activity and minor side effects.
FIGS. 39B and 39C illustrate the graphical representation of the data. […] For example, at treatment levels as low of 0.5 nM, 12k was able to prevent head and neck cancer cell proliferation almost completely, whereas it required 5 nM of 17ya to achieve similar antiproliferation.

[19] = intravenous (4 mg/kg), NSG mice

Compound: CNc1nc2c(c(N3CC(=O)Nc4cc(OC)ccc43)n1)CCC2 [Compound 12k, 7-methoxy-4-(2-(methylamino)-6,7-dihydro-5H-cyclopenta[d]pyrimidin-4-yl)-3,4-dihydroquinoxalin-2(1H)-one]
- IC50 [1]: 2.9 ± 0.5 nM
- apoptotic markers c-PARP and c-cas 3 [2]: elevated levels of apoptotic markers
- IC50 [3]: 0.5 ± 0.1 nM
- IC50 [4]: 2.2 ± 1.5 nM
- IC50 [5]: 0.7 ± 0.1 nM
- IC50 [6]: 1.2 ± 0.2 nM
- potency of 12k relative to compound 17ya ([7]; A-253 and Detroit 562): ~10 fold
- treatment level preventing cell proliferation almost completely ([7]; confluence over 62 h): 0.5 nM
- half-life ([8]; intravenous, 4 mg/kg, text b345, read-out: in vivo half-life): 3.97 h
- half-life ([8]; iv, 4 mg/kg, intravenous (4 mg/kg), NSG mice, read-out: t1/2 (converted)): 3.97 h
- half-life ([8]; po, 10 mg/kg, oral (10 mg/kg), NSG mice, read-out: t1/2 (converted)): 5.97 h
- AUC [8, 19]: 2890 ng·h/mL
- Cmax [8, 19]: 1250 ng/mL
- Tmax [8, 19]: 0.0833 h
- AUC ([8]; oral (10 mg/kg), NSG mice): 136 ng·h/mL
- Cmax ([8]; oral (10 mg/kg), NSG mice): 78.3 ng/mL
- Tmax ([8]; oral (10 mg/kg), NSG mice): 0.167 h
- bioavailability ([8]; oral (10 mg/kg), NSG mice): 2.02%
- inhibition of tumor growth in volume (ex vivo) vs control ([9]; 2.5 mg/kg i.v., 2 doses/week): approximately 85.6%
- reduction of tumor weight vs control ([9]; 2.5 mg/kg i.v., 2 doses/week): 84.5%
- tolerability / body weight ([9]; 2.5 mg/kg twice per week): well tolerated
- half-life at 1 μg/mL [10]: > 5 h
- microsomal CLint at 1 μg/mL [10]: < 2.31 µL/min/mg
- half-life at 1 μg/mL [11]: > 5 h
- microsomal CLint at 1 μg/mL [11]: < 2.31 µL/min/mg
- concentration with near complete inhibition of colony formation [12]: 2 nM
- concentration with near complete inhibition of colony formation [13]: 1 nM
- IC50 [14]: 0.2 nM
- IC50 [15]: 0.9 ± 0.2 nM
- IC50 [16]: 2.8 ± 0.5 nM
- Kp at 1 h [17]: 0.45
- IC50 [18]: 0.52 to 3.2 nM
